± gives the expanded uncertainty stated by the source.
Assay: molar heat capacity at constant pressure
Details: 101.33 kPa, Crystal 1

CC(C)(C)P(=O)(O)C(C)(C)C [di-tert-butylphosphinic acid]
Details | molar heat capacity at constant pressure [J/K/mol]
109.96 K | 123.9 ± 6.2
111.02 K | 124.96 ± 6.2
112.08 K | 126.24 ± 6.3
113.14 K | 127.31 ± 6.4
114.2 K | 128.48 ± 6.4
115.27 K | 129.54 ± 6.5
116.43 K | 130.61 ± 6.5
117.5 K | 131.89 ± 6.6
118.56 K | 133.17 ± 6.7
119.72 K | 134.34 ± 6.7
120.79 K | 135.3 ± 6.8
121.95 K | 136.47 ± 6.8
123.12 K | 137.64 ± 6.9
124.18 K | 138.92 ± 7
125.35 K | 139.99 ± 7
126.52 K | 141.05 ± 7.1
127.69 K | 142.22 ± 7.1
128.85 K | 143.4 ± 7.2
130.02 K | 144.57 ± 7.2
131.19 K | 145.74 ± 7.3
132.46 K | 147.02 ± 7.4
133.53 K | 148.19 ± 7.4
134.69 K | 149.04 ± 7.5
135.75 K | 150.32 ± 7.5
137.24 K | 151.28 ± 7.6
138.41 K | 152.45 ± 7.6
139.58 K | 153.52 ± 7.7
141.06 K | 154.79 ± 7.7
142.44 K | 156.07 ± 7.8
143.93 K | 157.56 ± 7.9
145.2 K | 158.74 ± 7.9
146.69 K | 160.12 ± 8
148.18 K | 161.4 ± 8.1
149.88 K | 163 ± 8.2
151.25 K | 164.38 ± 8.2
152.74 K | 165.77 ± 8.3
154.33 K | 167.04 ± 8.4
155.61 K | 168.32 ± 8.4
157.31 K | 169.71 ± 8.5
158.79 K | 170.99 ± 8.5
160.17 K | 172.37 ± 8.6
162.09 K | 173.76 ± 8.7
163.68 K | 175.25 ± 8.8
164.95 K | 176.42 ± 8.8
166.76 K | 177.81 ± 8.9
168.24 K | 179.3 ± 9
169.94 K | 180.79 ± 9
171.64 K | 182.28 ± 9.1
173.34 K | 183.77 ± 9.2
174.83 K | 185.05 ± 9.2
176.74 K | 186.86 ± 9.3
182.79 K | 191.66 ± 9.6
183.96 K | 192.72 ± 9.6
185.13 K | 193.79 ± 9.7
186.61 K | 195.06 ± 9.8
188.1 K | 196.24 ± 9.8
189.16 K | 197.3 ± 9.9
190.75 K | 198.37 ± 9.9
192.13 K | 199.65 ± 10
193.62 K | 200.92 ± 10
195.11 K | 202.2 ± 10
196.49 K | 203.37 ± 10
198.08 K | 204.65 ± 10
199.57 K | 205.72 ± 10
201.16 K | 207.1 ± 10
202.65 K | 208.27 ± 10
204.13 K | 209.55 ± 10
205.72 K | 210.72 ± 11
207.32 K | 212 ± 11
209.02 K | 213.18 ± 11
210.5 K | 214.45 ± 11
212.31 K | 215.73 ± 11
213.8 K | 217.01 ± 11
215.5 K | 218.5 ± 11
217.3 K | 219.78 ± 11
218.89 K | 221.16 ± 11
220.7 K | 222.76 ± 11
222.5 K | 224.04 ± 11
224.31 K | 225.53 ± 11
225.9 K | 227.24 ± 11
227.81 K | 228.62 ± 11
229.72 K | 230.11 ± 12
231.53 K | 231.82 ± 12
233.23 K | 233.2 ± 12
235.03 K | 234.69 ± 12
236.84 K | 236.08 ± 12
238.85 K | 237.57 ± 12
240.66 K | 239.06 ± 12
242.78 K | 240.77 ± 12
244.7 K | 242.15 ± 12
246.61 K | 243.75 ± 12
248.52 K | 245.35 ± 12
250.54 K | 247.05 ± 12
252.55 K | 248.76 ± 12
254.57 K | 250.25 ± 13
256.59 K | 251.85 ± 13
258.71 K | 253.44 ± 13
260.62 K | 255.26 ± 13
262.75 K | 257.07 ± 13
264.98 K | 258.77 ± 13
266.89 K | 260.69 ± 13
269.22 K | 262.39 ± 13
271.35 K | 264.63 ± 13
273.37 K | 265.91 ± 13
275.7 K | 267.4 ± 13
277.82 K | 269.32 ± 13
280.27 K | 271.45 ± 14
282.18 K | 272.62 ± 14
284.62 K | 274.96 ± 14
286.96 K | 276.99 ± 14
289.29 K | 279.01 ± 14
291.63 K | 281.14 ± 14
293.64 K | 283.17 ± 14
295.98 K | 283.49 ± 14
